Consider 7 compounds from patent US20110086759A1, “CHEMICAL COMPOUNDS” (SYNGENTA CROP PROTECTION, INC., priority 2007, published 2011).

What all share (format): in vivo
Assay [1] relates to Alopecurus myosuroides (ALOMY). In words: Post-emergence biological efficacy, glasshouse pot test. The conditions noted are these: 312 h. The gist of the method:
(§1)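 Scored 13 days after spraying on a 0 (no damage) to 100 (total damage) scale. Treatment was a post-emergence spray at 1000 or 250 g/ha, from acetone/water 50:50 plus 0.5% Tween 20, onto 8-day-old plants in soil pots. Growth at 24/16° C, 14 h photoperiod, 65% humidity, watered twice daily.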

In assay [2] the test system is Ipomea hederaceae (IPOHE). The assay is described as above. The conditions noted are these: Ipomoea hederacea, 312 h. The gist of the method:
as §1

The subject of assay [3] is Solanum nigrum (SOLNI). Described as above. Particulars: 312 h. The gist of the method:
as §1

Assay [4] concerns Amaranthus retoflexus (AMARE). The assay is described as above. Particulars: Amaranthus retroflexus, 312 h. In outline:
as §1

The test system of assay [5] is Setaria faberi (SETFA). The description is as above. The conditions noted are these: 312 h. In outline:
as §1

Assay [6] has as its system Echinochloa crus-galli (ECHCG). The assay is described as above. The conditions noted are these: 312 h. In outline:
as §1

For assay [7], the system named is Alopecurus myosuroides (ALOMY). Put plainly: Pre-emergence biological efficacy, glasshouse pot test. The conditions noted are these: 312 h. In outline:
(§2)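 Scores on a 0–100 damage scale were taken 13 days after spraying. Application rate 1000 or 250 g/ha, one day after sowing, in acetone/water-based aqueous spray containing 0.5% Tween 20.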

Assay [8] relates to Ipomea hederaceae (IPOHE). Described as above. The conditions noted are these: Ipomoea hederacea, 312 h. In outline:
as §2

Assay [9] has as its system Solanum nigrum (SOLNI). The assay is described as above. The conditions noted are these: 312 h. The gist of the method: as §2
Assay [10] deals with Amaranthus retoflexus (AMARE). The assay is described as above. The conditions noted are these: Amaranthus retroflexus, 312 h. In outline: as §2
Assay [11] concerns Setaria faberi (SETFA). The description is as above. The conditions noted are these: 312 h. The gist of the method:
as §2

For assay [12], the system named is Echinochloa crus-galli (ECHCG). The description is as above. Particulars: 312 h. The gist of the method:
as §2

Where [13] appears, read: post-emergence, 1,000 g/ha, evaluated after 13 days (100=total damage; 0=no damage), read-out: Percentage damage caused to weed species, ALOMY.
The mark [14] stands for this setting: post-emergence, 1,000 g/ha, evaluated after 13 days (100=total damage; 0=no damage), read-out: Percentage damage caused to weed species, IPOHE.
Setting [15] is: post-emergence, 1,000 g/ha, evaluated after 13 days (100=total damage; 0=no damage), read-out: Percentage damage caused to weed species, SOLNI.
Setting [16] is: post-emergence, 1,000 g/ha, evaluated after 13 days (100=total damage; 0=no damage), read-out: Percentage damage caused to weed species, AMARE.
[17] abbreviates: post-emergence, 1,000 g/ha, evaluated after 13 days (100=total damage; 0=no damage), read-out: Percentage damage caused to weed species, SETFA.
[18] abbreviates: post-emergence, 1,000 g/ha, evaluated after 13 days (100=total damage; 0=no damage), read-out: Percentage damage caused to weed species, ECHCG.
[19] abbreviates: pre-emergence, 1,000 g/ha, evaluated after 13 days (100=total damage; 0=no damage), read-out: Percentage damage ALOMY.
[20] abbreviates: pre-emergence, 1,000 g/ha, evaluated after 13 days (100=total damage; 0=no damage), read-out: Percentage damage IPOHE.
The mark [21] stands for this setting: pre-emergence, 1,000 g/ha, evaluated after 13 days (100=total damage; 0=no damage), read-out: Percentage damage SOLNI.
The mark [22] stands for this setting: pre-emergence, 1,000 g/ha, evaluated after 13 days (100=total damage; 0=no damage), read-out: Percentage damage AMARE.
[23] abbreviates: pre-emergence, 1,000 g/ha, evaluated after 13 days (100=total damage; 0=no damage), read-out: Percentage damage SETFA.
Where [24] appears, read: pre-emergence, 1,000 g/ha, evaluated after 13 days (100=total damage; 0=no damage), read-out: Percentage damage ECHCG.

Molecules are shown by their SMILES.

`COC(=O)c1nc(C2CC2)nc(N(C)[C@@H](Cc2ccccc2)C(=O)OC)c1Cl` [5-283 (S), 5-Chloro-2-cyclopropyl-6-methoxycarbonyl-4-{N-[(1S)-1-methoxycarbonyl-2-phenyl-ethyl]-N-methyl-amino}-pyrimidine]: the pest or weed control at 1000 g/ha in [1] (Rate 1,000 g/ha, post-emergence spray, evaluated after 13 days (100=total damage to plant; 0=no damage to plant), read-out: Percentage damage caused to weed species, post-emergence, ALOMY) is 10%; in assay [2] (Rate 1,000 g/ha, post-emergence spray, evaluated after 13 days (100=total damage to plant; 0=no damage to plant), read-out: Percentage damage caused to weed species, post-emergence, IPOHE) it was 50%; in assay [3] (Rate 1,000 g/ha, post-emergence spray, evaluated after 13 days (100=total damage to plant; 0=no damage to plant), read-out: Percentage damage caused to weed species, post-emergence, SOLNI), 70%; in assay [4] (Rate 1,000 g/ha, post-emergence spray, evaluated after 13 days (100=total damage to plant; 0=no damage to plant), read-out: Percentage damage caused to weed species, post-emergence, AMARE), 100%; in assay [5] (Rate 1,000 g/ha, post-emergence spray, evaluated after 13 days (100=total damage to plant; 0=no damage to plant), read-out: Percentage damage caused to weed species, post-emergence, SETFA), 40%; in assay [6] (Rate 1,000 g/ha, post-emergence spray, evaluated after 13 days (100=total damage to plant; 0=no damage to plant), read-out: Percentage damage caused to weed species, post-emergence, ECHCG) it was 10%. In addition, the pest or weed control at 1000 g/ha in assay [7] (pre-emergence, rate 1,000 g/ha, evaluated after 13 days (100=total damage to plant; 0=no damage), read-out: Percentage damage caused to weed species, ALOMY) is 0%; in [8] (pre-emergence, rate 1,000 g/ha, evaluated after 13 days (100=total damage to plant; 0=no damage), read-out: Percentage damage caused to weed species, IPOHE) it was 30%; in assay [9] (pre-emergence, rate 1,000 g/ha, evaluated after 13 days (100=total damage to plant; 0=no damage), read-out: Percentage damage caused to weed species, SOLNI), 40%; in assay [10] (pre-emergence, rate 1,000 g/ha, evaluated after 13 days (100=total damage to plant; 0=no damage), read-out: Percentage damage caused to weed species, AMARE), 80%; in [11] (pre-emergence, rate 1,000 g/ha, evaluated after 13 days (100=total damage to plant; 0=no damage), read-out: Percentage damage caused to weed species, SETFA), 0%; in assay [12] (pre-emergence, rate 1,000 g/ha, evaluated after 13 days (100=total damage to plant; 0=no damage), read-out: Percentage damage caused to weed species, ECHCG), 0%.
As for `O=C(O)c1nc(C2CC2)nc(NC2CC2)c1Cl` [Compound 1-1, 5-Chloro-2-cyclopropyl-4-cyclopropylamino-pyrimidine-6-carboxylic acid], the pest or weed control at 1000 g/ha in [1] (setting [13]) was 40%; in assay [2] (setting [14]), 80%; in [3] (setting [15]), 90%; in [4] (setting [16]), 100%; in assay [5] (setting [17]), 80%; in [6] (setting [18]), 40%. For the same compound, the pest or weed control at 1000 g/ha in assay [7] (setting [19]) came out at 20%; in assay [8] (setting [20]) it was 90%; in assay [9] (setting [21]), 90%; in assay [10] (setting [22]) it was 100%; in assay [11] (setting [23]), 0%; in assay [12] (setting [24]), 20%.
`O=C(O)c1nc(C2CC2)nc(NC2CCCC2)c1Cl` [Compound 1-33, 5-Chloro-2-cyclopropyl-4-cyclopentylamino-pyrimidine-6-carboxylic acid]: the pest or weed control at 1000 g/ha amounted to 30% in assay [1] (setting [13]); 70% in assay [2] (setting [14]); 80% in assay [3] (setting [15]); 100% in [4] (setting [16]); 80% in assay [5] (setting [17]); 20% in assay [6] (setting [18]). The pest or weed control at 1000 g/ha turned out to be 30% in assay [7] (setting [19]); 70% in assay [8] (setting [20]); 80% in [9] (setting [21]); 80% in [10] (setting [22]); 50% in [11] (setting [23]); 30% in assay [12] (setting [24]).
Turning to `O=C(O)c1nc(C2CC2)nc(NC2CCCCC2)c1Cl` [Compound 1-35, 5-Chloro-4-cyclohexylamino-2-cyclopropyl-pyrimidine-6-carboxylic acid], the pest or weed control at 1000 g/ha in assay [1] (setting [13]) was 10%; in assay [2] (setting [14]) it was 50%; in assay [3] (setting [15]), 30%; in assay [4] (setting [16]) it was 50%; in [5] (setting [17]), 0%; in assay [6] (setting [18]), 10%. The pest or weed control at 1000 g/ha turned out to be 10% in assay [7] (setting [19]); 0% in assay [8] (setting [20]); 20% in [9] (setting [21]); 50% in [10] (setting [22]); 0% in assay [11] (setting [23]); 10% in assay [12] (setting [24]).
Regarding `O=C(O)c1nc(C2CC2)nc(NCc2ccccc2)c1Cl` [Compound 1-60, 5-Chloro-2-cyclopropyl-4-phenylmethyamino pyrimidtne-6-carboxylic acid], the pest or weed control at 1000 g/ha in assay [1] (setting [13]) stood at 50%; in [2] (setting [14]), 100%; in assay [3] (setting [15]) it was 90%; in assay [4] (setting [16]), 100%; in [5] (setting [17]), 90%; in assay [6] (setting [18]) it was 70%. The pest or weed control at 1000 g/ha came out at 20% in assay [7] (setting [19]); 100% in [8] (setting [20]); 90% in assay [9] (setting [21]); 90% in assay [10] (setting [22]); 0% in [11] (setting [23]); 20% in assay [12] (setting [24]).
As for `O=C(O)c1nc(C2CC2)nc(NCc2ccc(F)cc2)c1Cl` [Compound 1-66, 5-Chloro-2-cyclopropyl-4-(4-fluorophenylmethyl-amino)pyrimidine-6-carboxylic acid], the pest or weed control at 1000 g/ha was found to be 10% in assay [1] (setting [13]); 80% in [2] (setting [14]); 90% in assay [3] (setting [15]); 100% in [4] (setting [16]); 80% in [5] (setting [17]); 50% in [6] (setting [18]). Also, the pest or weed control at 1000 g/ha was 10% in assay [7] (setting [19]); 90% in assay [8] (setting [20]); 60% in [9] (setting [21]); 50% in [10] (setting [22]); 10% in assay [11] (setting [23]); 10% in assay [12] (setting [24]).
Regarding `Cc1ccc(CNc2nc(C3CC3)nc(C(=O)O)c2Cl)cc1` [Compound 1-73, 5-Chloro-2-cyclo-propyl-4-(4-methyl-phenylmethyl-amino)pyrimidine-6-carboxylic acid], the pest or weed control at 1000 g/ha turned out to be 10% in [1] (setting [13]); 80% in assay [2] (setting [14]); 80% in assay [3] (setting [15]); 100% in [4] (setting [16]); 50% in assay [5] (setting [17]); 30% in assay [6] (setting [18]). The pest or weed control at 1000 g/ha stood at 10% in assay [7] (setting [19]); 60% in assay [8] (setting [20]); 80% in assay [9] (setting [21]); 70% in assay [10] (setting [22]); 30% in assay [11] (setting [23]); 10% in assay [12] (setting [24]).
